In the test the target is T1, human GPR84 receptor (Homo sapiens, UniProt Q9NQS5).
T1 construct: host or cells: HEK293, transiently transfected
Briefly: Gαi biosensor BRET assay (GPR84 antagonism vs agonist ZQ-16). It is filed as cell-based. The following applies: HEK293 cells, 200 nmol/L agonist ZQ-16; for IC50: Gαi biosensor BRET assay; for inhibition at 2 µM: tested at 2 μM (concentration code A); for inhibition at 10 µM: tested at 10 μM (concentration code D). The essentials:
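HEK293 cells transiently expressing GPR84, Gαi2-Rluc8, GFP10-Gγ2 and Gβ1 were pre-incubated with compounds 5 min at 37 °C in Tyrode's buffer pH 7.5, then stimulated with 200 nmol/L ZQ-16 for 5 min at room temperature. BRET2 (acceptor/donor ratio) read after 5 μmol/L coelenterazine 400A, background- and vehicle-corrected.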
(Bioluminescence resonance energy transfer reports proximity on the nanometre scale.)

T1 sequence (Q9NQS5 whole entry): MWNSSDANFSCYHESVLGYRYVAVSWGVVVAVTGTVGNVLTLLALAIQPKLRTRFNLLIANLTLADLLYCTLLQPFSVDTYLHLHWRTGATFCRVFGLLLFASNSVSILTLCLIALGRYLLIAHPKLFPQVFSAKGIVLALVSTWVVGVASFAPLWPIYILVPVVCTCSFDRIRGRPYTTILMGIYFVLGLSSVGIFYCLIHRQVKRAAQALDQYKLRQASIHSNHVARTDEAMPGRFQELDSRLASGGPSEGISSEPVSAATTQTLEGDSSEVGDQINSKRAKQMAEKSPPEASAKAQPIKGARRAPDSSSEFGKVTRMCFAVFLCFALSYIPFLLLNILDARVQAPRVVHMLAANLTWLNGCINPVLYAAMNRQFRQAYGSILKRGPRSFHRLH

In general, IC50 refers to the concentration needed to halve the response being measured. Lower therefore signals inhibition by little substance. Broadly, the inhibition is the relative decrease from the control value, in per cent. High values mean a response far below the control, low ones a response near the control. As to `Cc1cc(OCC(=O)N2CC[C@@H](S(C)(=O)=O)C2)cc(=O)n1[C@H](C)c1ccc(C#CC2CC2)cc1` [Compound I-252], the IC50 is no more than 300 nM and the inhibition at 2 µM is greater than 75%.

Compound `Cc1cc(OCC(=O)N2CC[C@H](S(C)(=O)=O)C2)cc(=O)n1[C@H](C)c1ccc(C#CC2CC2)cc1` [Compound I-253] registered an inhibition at 10 µM greater than 75%.

As for `Cc1cc(OCC(=O)N2CCC[C@@H]2C(F)(F)F)cc(=O)n1[C@H](C)c1ccc(C#CC2CC2)cc1` [Compound I-254], the IC50 is no more than 300 nM and the inhibition at 2 µM is greater than 75%.

`Cc1cc(OCC(=O)N2CCC[C@H]2C(F)(F)F)cc(=O)n1[C@H](C)c1ccc(C#CC2CC2)cc1` [Compound I-255] registered an IC50 of 300 to 1000 nM and an inhibition at 2 µM greater than 75%.

The compound `Cc1cc(OCC(=O)N2CCC(C)(C)C2)cc(=O)n1[C@H](C)c1ccc(C#CC2CC2)cc1` [Compound I-256] returned an inhibition at 2 µM greater than 75%.

As to `Cc1cc(OCC(=O)N2CCC(F)(F)C2)cc(=O)n1[C@H](C)c1ccc(C#CC2CC2)cc1` [Compound I-257], the IC50 is no more than 300 nM and the inhibition at 2 µM was greater than 75%.

As to `Cc1cc(OCC(=O)N2CCCC2(C)C)cc(=O)n1[C@H](C)c1ccc(C#CC2CC2)cc1` [Compound I-258], the half-maximal inhibitory concentration (IC50) was no more than 300 nM and the inhibition at 2 µM is greater than 75%.

Compound `Cc1cc(OCc2nnn[nH]2)cc(=O)n1[C@H](C)c1ccc(C#CC2CC2)cc1` [Compound I-259] yielded an IC50 of no more than 300 nM and an inhibition at 2 µM greater than 75%.

As to `Cc1cc(OCc2nnnn2C)cc(=O)n1[C@H](C)c1ccc(C#CC2CC2)cc1` [Compound I-260], the IC50 is no more than 300 nM and the inhibition at 2 µM was greater than 75%.

Turning to `Cc1cc(OCc2nnn(C)n2)cc(=O)n1[C@H](C)c1ccc(C#CC2CC2)cc1` [Compound I-261], the IC50 was in the range of 300 to 1000 nM and the inhibition at 2 µM is greater than 75%.

`Cc1cc(OCC(=O)N(C)C)cc(=O)n1C(C)c1ccc(C#CC2CC2)cc1Cl` (stereo not drawn) [Compound I-262] came in with an inhibition at 10 µM greater than 75%.

Regarding `Cc1cc(OCC(=O)N(C)C)cc(=O)n1[C@H](C)c1ccc(C#CC(=O)O)cc1` [Compound I-264], the inhibition at 10 µM was less than 25%.

As to `Cc1cc(OCC(=O)N(C)C)cc(=O)n1[C@H](C)c1ccc(C(=O)O)cc1` [Compound I-265], the inhibition at 10 µM is less than 25%.

In the case of `Cc1cc(OCC(=O)N(C)C)cc(=O)n1[C@H](C)c1ccc(-c2nnn[nH]2)cc1` [Compound I-266], the inhibition at 10 µM was less than 25%.

In turn, `CCN(C)C(=O)COc1cc(C)n([C@H](C)c2ccc(C#CC3CC3)cc2)c(=O)c1` [Compound I-267] gave an IC50 of no more than 300 nM and an inhibition at 2 µM greater than 75%.

Take `CCN(CC)C(=O)COc1cc(C)n([C@H](C)c2ccc(C#CC3CC3)cc2)c(=O)c1` [Compound I-268]: the IC50 was no more than 300 nM and the inhibition at 2 µM is greater than 75%.

Compound `Cc1cc(OCC(=O)C(C)C)cc(=O)n1[C@H](C)c1ccc(C#CC2CC2)cc1` [Compound I-270] displayed an IC50 of no more than 300 nM and an inhibition at 2 µM greater than 75%.

Regarding `CC(=O)C(C)(C)Oc1cc(C)n([C@H](C)c2ccc(C#CC3CC3)cc2)c(=O)c1` [Compound I-271], the inhibition at 10 µM lay within 25 to 50%.

`Cc1cc(OCC(=O)C(C)(C)C)cc(=O)n1[C@H](C)c1ccc(C#CC2CC2)cc1` [Compound I-272] gave an IC50 of 300 to 1000 nM and an inhibition at 2 µM greater than 75%.

In turn, `Cc1cc(OCC(=O)C2CCCC2)cc(=O)n1[C@H](C)c1ccc(C#CC2CC2)cc1` [Compound I-273] returned an inhibition at 10 µM greater than 75%.

`Cc1cc(OCC(O)C(C)C)cc(=O)n1[C@H](C)c1ccc(C#CC2CC2)cc1` (stereo partly drawn) [Compound I-274] came in with an inhibition at 10 µM greater than 75%.

For `COC(COc1cc(C)n([C@H](C)c2ccc(C#CC3CC3)cc2)c(=O)c1)C(C)C` (stereo partly drawn) [Compound I-275], the inhibition at 10 µM was greater than 75%.

`Cc1cc(OCC(O)C(C)(C)C)cc(=O)n1[C@H](C)c1ccc(C#CC2CC2)cc1` (stereo partly drawn) [Compound I-276] registered an IC50 of 300 to 1000 nM and an inhibition at 10 µM greater than 75%.

For the origin of these results see patent publication US20260055117A1, “SUBSTITUTED PYRIDONE GPR84 ANTAGONISTS AND USES THEREOF” (Liminal BioSciences Limited, priority 2022, published 2026).
